Experimental data reported in patent US20250346585A1 (Alexion Pharmaceuticals, Inc., priority 2022, published 2025).

Target: Human complement C1s enzyme (Homo sapiens (Human), UniProt P09871)
Test: Human C1s enzyme assay
Type: biochemical
Settings: Human complement C1s enzyme 1.16 nM, substrate Z-L-Lys-SBzl 100 μM, assay of Example 3; read-out: IC50 (Stars)
Method in brief: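 IC50 derived by nonlinear regression of rate versus concentration, with rate taken from A405 kinetics (30 s intervals, 30 min) after adding 100 μM each Z-L-Lys-SBzl and DTNB. C1s from human serum, 1.16 nM, exposed to compound for 5 min at RT beforehand; buffer 50 mM Tris, 1 M NaCl, pH 7.5.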

Chain of Human complement C1s enzyme (P09871 438-688 limits assumed): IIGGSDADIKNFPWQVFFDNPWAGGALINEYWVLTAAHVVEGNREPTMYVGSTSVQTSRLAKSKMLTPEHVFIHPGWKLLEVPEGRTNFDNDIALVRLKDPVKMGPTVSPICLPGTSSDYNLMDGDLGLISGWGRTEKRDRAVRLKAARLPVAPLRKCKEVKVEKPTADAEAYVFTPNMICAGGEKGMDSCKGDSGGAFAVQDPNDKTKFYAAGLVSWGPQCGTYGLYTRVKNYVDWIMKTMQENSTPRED
Chain of Human complement C1s enzyme (P09871 16-437 partner limits assumed): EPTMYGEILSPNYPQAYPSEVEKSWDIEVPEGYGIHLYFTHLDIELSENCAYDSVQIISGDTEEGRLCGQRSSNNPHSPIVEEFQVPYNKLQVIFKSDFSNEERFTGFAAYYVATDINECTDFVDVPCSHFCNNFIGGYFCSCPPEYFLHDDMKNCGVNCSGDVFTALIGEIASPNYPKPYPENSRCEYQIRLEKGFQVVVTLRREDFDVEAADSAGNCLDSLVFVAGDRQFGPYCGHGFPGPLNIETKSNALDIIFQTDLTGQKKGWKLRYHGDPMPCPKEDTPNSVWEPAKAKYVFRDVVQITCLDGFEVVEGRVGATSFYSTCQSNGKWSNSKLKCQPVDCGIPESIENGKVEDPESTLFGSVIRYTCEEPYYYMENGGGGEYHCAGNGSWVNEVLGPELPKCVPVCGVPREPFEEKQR

| IC50 | SMILES |
| --- | --- |
| < 100 nM | CS(=O)(=O)c1ccc(-c2ccc(C(=O)NCC(=O)N3CC4(C[C@H]3C(=O)NCc3cc(C(=N)N)cs3)OCCO4)cc2)c(F)c1 [Compound 215, (S)—N-((4-carbamimidoylthiophen-2-yl)methyl)-7-((2′-fluoro-4′-(methylsulfonyl)-[1,1′-biphenyl]-4-carbonyl)glycyl)-1,4-dioxa-7-azaspiro[4.4]nonane-8-carboxamide] |
| < 100 nM | CC(C)S(=O)(=O)c1ccc(-c2ccc(C(=O)NCC(=O)N3CC4(C[C@H]3C(=O)NCc3cc(C(=N)N)cs3)OCCO4)cc2)cc1 [Compound 216, (S)—N-((4-carbamimidoylthiophen-2-yl)methyl)-7-((4′-(isopropylsulfonyl)-[1,1′-biphenyl]-4-carbonyl)glycyl)-1,4-dioxa-7-azaspiro[4.4]nonane-8-carboxamide] |
| < 100 nM | C[C@@H](NC(=O)[C@@H]1C[C@@H](c2ccccc2)CN1C(=O)CNC(=O)c1ccc2oc3ccccc3c2c1)c1cc(C(=N)N)cs1 [Compound 218, (2S,4S)—N—((R)-1-(4-carbamimidoylthiophen-2-yl)ethyl)-1-((dibenzo[b,d]furan-2-carbonyl)glycyl)-4-phenylpyrrolidine-2-carboxamide] |
| < 100 nM | C[C@@H](NC(=O)[C@@H]1C[C@@H](S(C)(=O)=O)CN1C(=O)CNC(=O)c1ccc2oc3ccccc3c2c1)c1cc(C(=N)N)cs1 [Compound 220, (2S,4R)—N—((R)-1-(4-carbamimidoylthiophen-2-yl)ethyl)-1-((dibenzo[b,d]furan-2-carbonyl)glycyl)-4-(methylsulfonyl)pyrrolidine-2-carboxamide] |
| < 100 nM | CO[C@@H]1C[C@@H](C(=O)N[C@H](C)c2cc(C(=N)N)cs2)N(C(=O)CNC(=O)c2ccc3oc4ccccc4c3c2)C1 [Compound 221, (2S,4R)—N—((R)-1-(4-carbamimidoylthiophen-2-yl)ethyl)-1-((dibenzo[b,d]furan-2-carbonyl)glycyl)-4-methoxypyrrolidine-2-carboxamide] |
| < 100 nM | COC[C@@]1(F)C[C@@H](C(=O)N[C@H](C)c2cc(C(=N)N)cs2)N(C(=O)CNC(=O)c2ccc3oc4ccccc4c3c2)C1 [Compound 222, (2S,4R)—N—((R)-1-(4-carbamimidoylthiophen-2-yl)ethyl)-1-((dibenzo[b,d]furan-2-carbonyl)glycyl)-4-fluoro-4-(methoxymethyl)pyrrolidine-2-carboxamide] |
| < 100 nM | C[C@@H](NC(=O)[C@@H]1C[C@](F)(CF)CN1C(=O)CNC(=O)c1ccc2oc3ccccc3c2c1)c1cc(C(=N)N)cs1 [Compound 223, (2S,4R)—N—((R)-1-(4-carbamimidoylthiophen-2-yl)ethyl)-1-((dibenzo[b,d]furan-2-carbonyl)glycyl)-4-fluoro-4-(fluoromethyl)pyrrolidine-2-carboxamide] |
| < 100 nM | COC[C@@]1(F)C[C@@H](C(=O)N[C@H](C)c2cc(C(=N)N)cs2)N(C(=O)CNC(=O)c2ccc3cc4ccccc4cc3c2)C1 [Compound 224, (2S,4R)-1-[2-(anthracen-2-ylformamido)acetyl]-N-[(1R)-1-(4-carbamimidoylthiophen-2-yl)ethyl]-4-fluoro-4-(methoxymethyl)pyrrolidine-2-carboxamide] |
| < 100 nM | C[C@@H](NC(=O)[C@@H]1CC2(CN1C(=O)CNC(=O)c1ccc3c(c1)-c1cc(F)ccc1C3(F)F)OCCO2)c1cc(C(=N)N)cs1 [Compound 225, (S)—N—((R)-1-(4-carbamimidoylthiophen-2-yl)ethyl)-7-((6,9,9-trifluoro-9H-fluorene-3-carbonyl)glycyl)-1,4-dioxa-7-azaspiro[4.4]nonane-8-carboxamide] |
| < 100 nM | C[C@H]1C[C@@H](C(=O)N[C@H](C)c2cc(C(=N)N)cs2)N(C(=O)CNC(=O)c2ccc3oc4ccccc4c3c2)C1 [Compound 226, (2S,4S)—N—((R)-1-(4-carbamimidoylthiophen-2-yl)ethyl)-1-((dibenzo[b,d]furan-2-carbonyl)glycyl)-4-methylpyrrolidine-2-carboxamide] |
| < 100 nM | N=C(N)c1csc(CNC(=O)[C@@H]2CC3(CN2C(=O)CNC(=O)c2ccc(-c4ccc(F)cc4C(=O)O)cc2)OCCO3)c1 [Compound 227, (S)-4′-((2-(8-(((4-carbamimidoylthiophen-2-yl)methyl)carbamoyl)-1,4-dioxa-7-azaspiro[4.4]nonan-7-yl)-2-oxoethyl)carbamoyl)-4-fluoro-[1,1′-biphenyl]-2-carboxylic acid] |
| < 100 nM | N=C(N)c1csc(CNC(=O)[C@@H]2CC3(CN2C(=O)CN2Cc4cc(-c5ccc(F)cc5F)ccc4C2=O)OCCO3)c1 [Compound 228, (S)—N-((4-carbamimidoylthiophen-2-yl)methyl)-7-(2-(5-(2,4-difluorophenyl)-1-oxoisoindolin-2-yl)acetyl)-1,4-dioxa-7-azaspiro[4.4]nonane-8-carboxamide] |
| < 100 nM | N=C(N)c1csc(CNC(=O)[C@@H]2CC3(CN2C(=O)CN2Cc4ccc(-c5ccc(F)cc5F)cc4C2=O)OCCO3)c1 [Compound 229, (S)—N-((4-carbamimidoylthiophen-2-yl)methyl)-7-(2-(6-(2,4-difluorophenyl)-1-oxoisoindolin-2-yl)acetyl)-1,4-dioxa-7-azaspiro[4.4]nonane-8-carboxamide] |
| < 100 nM | N=C(N)c1csc(CNC(=O)[C@@H]2CC3(CN2C(=O)CN2Cc4cc(-c5ccc(F)cc5)ccc4C2=O)OCCO3)c1 [Compound 230] |
| < 100 nM | N=C(N)c1csc(CNC(=O)[C@@H]2CC3(CN2C(=O)CN2Cc4cc(-c5ccccc5)ccc4C2=O)OCCO3)c1 [Compound 231, (S)—N-((4-carbamimidoylthiophen-2-yl)methyl)-7-(2-(1-oxo-5-phenylisoindolin-2-yl)acetyl)-1,4-dioxa-7-azaspiro[4.4]nonane-8-carboxamide] |
| < 100 nM | COC(=O)/N=C(/N)c1csc([C@@H](C)NC(=O)[C@@H]2C[C@](F)(CF)CN2C(=O)CNC(=O)c2ccc(Oc3ccc(F)cc3)cc2)c1 [Compound 233, methyl ((E)-amino(5-((R)-1-((2S,4R)-4-fluoro-4-(fluoromethyl)-1-((4-(4-fluorophenoxy)benzoyl)glycyl)pyrrolidine-2-carboxamido)ethyl)thiophen-3-yl)methylene)carbamate] |
| < 100 nM | CCCCCCOC(=O)/N=C(/N)c1csc([C@@H](C)NC(=O)[C@@H]2C[C@](F)(CF)CN2C(=O)CNC(=O)c2ccc(Oc3ccc(F)cc3)cc2)c1 [Compound 234, hexyl ((E)-amino(5-((R)-1-((2S,4R)-4-fluoro-4-(fluoromethyl)-1-((4-(4-fluorophenoxy)benzoyl)glycyl)pyrrolidine-2-carboxamido)ethyl)thiophen-3-yl)methylene)carbamate] |
| < 100 nM | C[C@@H](NC(=O)[C@@H]1C[C@](F)(CF)CN1C(=O)CNC(=O)c1ccc2cc3ccccc3cc2c1)c1cc(C(=N)N)cs1 [Compound 235, (2S,4R)-1-((anthracene-2-carbonyl)glycyl)-N—((R)-1-(4-carbamimidoylthiophen-2-yl)ethyl)-4-fluoro-4-(fluoromethyl)pyrrolidine-2-carboxamide] |
| < 100 nM | Cc1ccccc1[C@H]1C[C@@H](C(=O)N[C@H](C)c2cc(C(=N)N)cs2)N(C(=O)CNC(=O)c2ccc3oc4ccccc4c3c2)C1 [Compound 236, (2S,4R)—N—((R)-1-(4-carbamimidoylthiophen-2-yl)ethyl)-1-((dibenzo[b,d]furan-2-carbonyl)glycyl)-4-(o-tolyl)pyrrolidine-2-carboxamide] |
| < 100 nM | Cc1cc2c(cc1C(=O)NCC(=O)N1CC3(C[C@H]1C(=O)N[C@H](C)c1cc(C(=N)N)cs1)OCCO3)-c1ccccc1C2(F)F [Compound 237, (S)—N—((R)-1-(4-carbamimidoylthiophen-2-yl)ethyl)-7-((9,9-difluoro-2-methyl-9H-fluorene-3-carbonyl)glycyl)-1,4-dioxa-7-azaspiro[4.4]nonane-8-carboxamide] |
| < 100 nM | CCS(=O)(=O)[C@@H]1C[C@@H](C(=O)N[C@H](C)c2cc(C(=N)N)cs2)N(C(=O)CNC(=O)c2ccc3c(c2)-c2ccccc2C3(F)F)C1 [Compound 238, (2S,4R)—N—((R)-1-(4-carbamimidoylthiophen-2-yl)ethyl)-1-((9,9-difluoro-9H-fluorene-3-carbonyl)glycyl)-4-(ethylsulfonyl)pyrrolidine-2-carboxamide] |
| < 100 nM | C[C@@H](NC(=O)[C@@H]1C[C@@H](S(C)(=O)=O)CN1C(=O)CNC(=O)c1ccc2cc3ccccc3cc2c1)c1cc(C(=N)N)cs1 [Compound 239, (2S,4R)-1-((anthracene-2-carbonyl)glycyl)-N—((R)-1-(4-carbamimidoylthiophen-2-yl)ethyl)-4-(methylsulfonyl)pyrrolidine-2-carboxamide] |
| < 100 nM | Cc1ccc(-c2ccc3c(c2)CN(CC(=O)N2CC4(C[C@H]2C(=O)NCc2cc(C(=N)N)cs2)OCCO4)C3=O)c(C)c1 [Compound 240, (S)—N-((4-carbamimidoylthiophen-2-yl)methyl)-7-(2-(5-(2,4-dimethylphenyl)-1-oxoisoindolin-2-yl)acetyl)-1,4-dioxa-7-azaspiro[4.4]nonane-8-carboxamide] |

| SMILES | IC50 |
| --- | --- |
| COc1ccc(-c2ccc(C(=O)NCC(=O)N3CC4(C[C@H]3C(=O)NCc3cc(C(=N)N)cs3)OCCO4)cc2)cc1 [Compound 217, (S)—N-((4-carbamimidoylthiophen-2-yl)methyl)-7-((4′-methoxy-[1,1′-biphenyl]-4-carbonyl)glycyl)-1,4-dioxa-7-azaspiro[4.4]nonane-8-carboxamide] | < 100 nM |
| COC[C@@]1(F)C[C@@H](C(=O)N[C@H](C)c2cc(/C(N)=N\C(=O)OC)cs2)N(C(=O)CNC(=O)c2ccc3c(c2)-c2ccccc2C3(F)F)C1 [Compound 232, methyl ((E)-amino(5-((R)-1-((2S,4R)-1-((9,9-difluoro-9H-fluorene-3-carbonyl)glycyl)-4-fluoro-4-(methoxymethyl)pyrrolidine-2-carboxamido)ethyl)thiophen-3-yl)methylene)carbamate] | < 100 nM |
